Assay results as given in ChEMBL document CHEMBL5126579, “Design and synthesis of efficient fluororethylene-peptidomimetic inhibitors of dipeptidyl peptidase III (DPP3)” (Bioorg Med Chem, 2022).

Experiments:
Dipeptidyl peptidase 3 [1] = molecular target: T1, Dipeptidyl peptidase 3 (Homo sapiens, UniProt Q9NY33); assay: Competitive inhibition of DPP3 (unknown origin) using Arg-Arg-2-naphthylamide as substrate
T1 sequence (Q9NY33 whole entry): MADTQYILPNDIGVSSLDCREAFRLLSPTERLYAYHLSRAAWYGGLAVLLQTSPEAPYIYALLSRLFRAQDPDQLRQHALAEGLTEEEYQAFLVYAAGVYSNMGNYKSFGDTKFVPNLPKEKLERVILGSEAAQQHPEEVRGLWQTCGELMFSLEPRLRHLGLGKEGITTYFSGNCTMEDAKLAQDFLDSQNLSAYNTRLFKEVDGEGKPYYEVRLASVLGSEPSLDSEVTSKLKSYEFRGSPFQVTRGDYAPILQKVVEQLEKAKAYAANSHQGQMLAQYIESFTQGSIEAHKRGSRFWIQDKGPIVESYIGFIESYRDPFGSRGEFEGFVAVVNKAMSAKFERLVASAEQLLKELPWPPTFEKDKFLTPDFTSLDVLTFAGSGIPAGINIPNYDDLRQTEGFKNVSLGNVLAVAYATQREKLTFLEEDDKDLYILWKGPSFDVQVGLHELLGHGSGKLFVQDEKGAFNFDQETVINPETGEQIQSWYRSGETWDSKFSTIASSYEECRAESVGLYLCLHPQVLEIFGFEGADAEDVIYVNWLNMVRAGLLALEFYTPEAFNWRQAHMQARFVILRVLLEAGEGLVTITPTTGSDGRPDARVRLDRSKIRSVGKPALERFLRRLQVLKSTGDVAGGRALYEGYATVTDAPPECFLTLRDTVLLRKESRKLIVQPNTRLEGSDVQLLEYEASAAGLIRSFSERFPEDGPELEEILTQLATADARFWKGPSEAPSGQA

Dipeptidyl peptidase 3 [2] = molecular target: T1, Dipeptidyl peptidase 3; assay: Inhibition of human DPP3 using Arg-Arg-2-naphthylamide as substrate assessed as reduction in release of 2-naphthylamine preincubated for 10 mins followed by substrate addition and measured for 30 mins by fluorescence based analysis
Dipeptidyl peptidase 3 [3] = molecular target: T1, Dipeptidyl peptidase 3; assay: Inhibition of DPP3 (unknown origin)

Row | Molecule | IC50 (Dipeptidyl peptidase 3 [2]) [µM] | also measured
1 | Cc1cc(=O)c2c(cc(O)c3c4c(O)cccc4c(=O)c32)c1=O |  | IC50 (Dipeptidyl peptidase 3 [1]): 1.44 µM
2 | CC(C)[C@H](N)C(=O)N[C@H](/C(F)=C/[C@@H](Cc1ccccc1)C(=O)N1CCCC[C@H]1C(=O)N[C@@H](Cc1c[nH]c2ccccc12)C(=O)O)C(C)C | 7.7 | 
3 | CC(C)[C@H](NC(=O)[C@@H](N)C(C)(C)C)/C(F)=C/[C@@H](Cc1ccccc1)C(=O)N1CCC[C@H]1C(=O)N[C@@H](Cc1c[nH]c2ccccc12)C(=O)O | 22.5 | 
4 | CC1C(=O)c2cc(O)c3c(c2C(O)C1O)C(=O)c1cccc(O)c1-3 (stereo not drawn) |  | IC50 (Dipeptidyl peptidase 3 [1]): 74 µM
5 | CC(C)[C@H](N)C(=O)N[C@@H](C(C)C)[C@H](O)N[C@@H](Cc1ccccc1)C(=O)N1CCC[C@H]1C(=O)N[C@@H](Cc1c[nH]c2ccccc12)C(=O)O |  | IC50 (Dipeptidyl peptidase 3 [3]): 8.5 µM
6 | H-VVFPW-OH |  | IC50 (Dipeptidyl peptidase 3 [3]): 0.13 µM

Second part, led by results:

Row | IC50 (Dipeptidyl peptidase 3 [2]) [µM] | Molecule | also measured
7 | 21 | CC(C)[C@H](NC(=O)[C@@H](N)C(C)(C)C)/C(F)=C/[C@@H](Cc1ccccc1)C(=O)N1CCCC[C@H]1C(=O)N[C@@H](Cc1c[nH]c2ccccc12)C(=O)O | 
8 | 4.6 | CC(C)[C@H](N)C(=O)N[C@H](/C(F)=N/[C@@H](Cc1ccccc1)C(=O)N1CCC[C@H]1C(=O)N[C@@H](Cc1c[nH]c2ccccc12)C(=O)O)C(C)C | 
